Test results from patent US10208033B2, “β-carboline, dihydro-β-carboline and tetrahydro-β-carboline alkaloid derivatives and preparation methods same and use in aspects of preventing and treating plant viruses, fungicides and insecticides” (NANKAI UNIVERSITY, priority 2013, dated 2019).
Read-outs that look alike come from different tables or passages of the source.

How the values were obtained:
[1] = test system: tobacco mosaic virus (TMV); assay: Anti-TMV in vivo protective effect; design: species or system tobacco mosaic virus (host Nicotiana tabacum L.cv.Xanthi NN)
[2] = test system: Alternaria solani; assay: Fungicidal (bactericidal) activity in vitro, PDA colony diameter; type: cell-based; details: 50 mg/kg
[3] = test system: Rhizoctonia cereali; assay: as above; type: cell-based
[4] = test system: Sclerotinia scleotiorum; assay: as above; type: cell-based; details: 50 mg/kg
[5] = test system: potato late blight; assay: microbe, parasite or virus in culture; type: cell-based
[6] = test system: Bipolaria maydis; assay: organism not typed; type: cell-based; details: 50 mg/kg
[7] = test system: Cercospora arachidicola; assay: Fungicidal (bactericidal) activity in vitro, PDA colony diameter; type: cell-based; details: 50 mg/kg
[8] = test system: Phytophthora capsici; assay: as above; type: cell-based; details: 50 mg/kg
[9] = test system: Fusarium fujikuroi; assay: as above; type: cell-based; details: 50 mg/kg
[10] = test system: cotton bollworms; assay: whole plant or invertebrate; details: concentration 600 mg/kg
Method: Experimental method of cotton bollworms: feed and drug mixing method: measure 3 mL of prepared solution and add it to about 27 g of newly prepared feed, thereby obtaining needed concentration through dilution by 10 times.

[11] = test system: mosquito larvae; assay: whole plant or invertebrate; details: 24 h
Outline: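 Early fourth-instar Culex pipiens pallens larvae from an indoor colony, 10 per beaker, exposed to test compound at 5 ppm in water, diluted from a 1000 ppm acetone mother solution. Blank: water containing 0.5 mL test solvent.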

[12] = test system: Macrophoma kawatsukai; assay: Fungicidal (bactericidal) activity in vitro, PDA colony diameter; type: cell-based; details: 50 mg/kg
[13] = test system: Rhizoctonia solani; assay: as above; type: cell-based; details: 50 mg/kg
[14] = test system: Botrytis cinerea; assay: as above; type: cell-based; details: 50 mg/kg
[15] = test system: armyworms; type: in vivo; details: concentration 600 mg/kg
[16] = test system: tobacco mosaic virus (TMV); assay: Anti-TMV in vitro effect (half-leaf soaking); type: cell-based, tobacco mosaic virus (host Nicotiana tabacum L.cv.Xanthi NN)
[17] = test system: Fusarium graminearumt; assay: microbe, parasite or virus in culture; type: cell-based; details: 50 mg/kg
[18] = test system: tobacco mosaic virus (TMV); assay: Anti-TMV in vivo therapeutic effect; design: species or system tobacco mosaic virus (host Nicotiana tabacum L.cv.Xanthi NN)
[19] = test system: Colletotrichum orbiculare; assay: Fungicidal (bactericidal) activity in vitro, PDA colony diameter; type: cell-based; details: 50 mg/kg
[20] = test system: cucumber fusarium wilt; assay: as above; type: cell-based; details: 50 mg/kg
[21] = test system: corn borers; details: concentration 600 mg/kg
[22] = test system: tobacco mosaic virus (TMV); assay: Anti-TMV in vivo inactivation; design: species or system tobacco mosaic virus (host Nicotiana tabacum L.cv.Xanthi NN)

Row | SMILES | Relative inhibition rate (%) In vivo protection ([1]; treatment dose 100 μg/mL) [%] | Relative inhibition rate (%) In vivo protection ([1]; treatment dose 500 μg/mL) [%] | Bactericidal activity (%) Alternaria solani [2] [%] | Bactericidal activity (%) Sclerotinia scleotiorum [4] [%] | Bactericidal activity (%) potato late blight [5] [%] | Bactericidal activity (%) Bipolaria maydis [6] [%] | Bactericidal activity (%) Cercospora arachidicola [7] [%] | Bactericidal activity (%) Phytophthora capsici [8] [%] | Bactericidal activity (%) Fusarium fujikuroi [9] [%] | Cotton bollworm Mortality (%) [10] [%] | Mosquito larvae Mortality (%) ([11]; concentration 10 mg/kg) | Bactericidal activity (%) Macrophoma kawatsukai [12] [%] | Bactericidal activity (%) Rhizoctonia solani [13] [%] | Bactericidal activity (%) Botrytis cinerea [14] [%] | Armyworm Mortality (%) [15] [%] | Relative inhibition rate (%) In vitro activity ([16]; treatment dose 100 μg/mL) [%] | Relative inhibition rate (%) In vitro activity ([16]; treatment dose 500 μg/mL) [%] | Bactericidal activity (%) Fusarium graminearumt [17] [%] | Relative inhibition rate (%) In vivo therapy ([18]; treatment dose 100 μg/mL) [%] | Relative inhibition rate (%) In vivo therapy ([18]; treatment dose 500 μg/mL) [%] | further results
1 | C[C@@H]1N[C@H](C(=O)NN=Cc2ccc(N(C)C)cc2)Cc2c1[nH]c1ccccc21 [Ic-3, (1S, 3S)—N′-(4-dimethylaminobenzylidene)-1-methyl-2,3,4,9-tetrahydropyridino [3,4-b] indol-3-formylhydrazine] | 18.9 | 62.4 | 65.0 | 41.2 | 72.0 | 64.0 | 76.5 | 78.9 | 35.7 | 40 | 55 | 97.2 | 63.2 | 72.7 | 25 | 20.4 | 56.8 | 31.0 | 23.1 | 60.4 | Bactericidal activity (%) Rhizoctonia cereali ([3]; 50 mg/kg): 96.1%; Bactericidal activity (%) Colletotrichum orbiculare [19]: 48.1%; Bactericidal activity (%) Cucumber fusarium wilt [20]: 38.5%; Corn borer Mortality (%) [21]: 30%; Relative inhibition rate (%) In vivo inactivation ([22]; treatment dose 100 μg/mL): 25%; Relative inhibition rate (%) In vivo inactivation ([22]; treatment dose 500 μg/mL): 64.5%
2 | C[C@@H]1N[C@H](C(=O)NN=Cc2ccc([N+](=O)[O-])cc2)Cc2c1[nH]c1ccccc21 [Ic-4, (1S, 3S)—N′-(4-nitrobenzylidene)-1-methyl-2,3,4,9-tetrahydropyridino [3,4-b] indol-3-formylhydrazine] | 21.4 | 61.5 | 45.0 | 88.2 | 52.0 | 60.0 | 58.8 | 78.9 | 42.9 | 35 | 65 | 72.2 | 59.2 | 72.7 | 30 | 19.6 | 62.8 | 58.6 | 20.8 | 57.1 | Bactericidal activity (%) Rhizoctonia cereali ([3]; 50 mg/kg): 88.2%; Bactericidal activity (%) Colletotrichum orbiculare [19]: 48.1%; Bactericidal activity (%) Cucumber fusarium wilt [20]: 38.5%; Corn borer Mortality (%) [21]: 35%; Relative inhibition rate (%) In vivo inactivation ([22]; treatment dose 100 μg/mL): 27.4%; Relative inhibition rate (%) In vivo inactivation ([22]; treatment dose 500 μg/mL): 58.3%
3 | C[C@@H]1N[C@H](C(=O)NN=Cc2ccc(Cl)cc2Cl)Cc2c1[nH]c1ccccc21 [Ic-6, (1S, 3S)—N′-(2,4-dichlorobenzylidene)-1-methyl-2,3,4,9-tetrahydropyridino [3,4-b] indol-3-formylhydrazine] | 18.6 | 57.2 | 42.9 | 46.2 | 39.1 | 56.0 | 45.5 | 60.6 | 47.1 | 35 | 100 | 48.5 | 45.8 | 52.8 | 45 | 20.1 | 56.8 | 53.8 | 31.5 | 60.4 | Bactericidal activity (%) Rhizoctonia cereali [3]: 56.8%; Mosquito larvae Mortality (%) ([11]; concentration 5 mg/kg): 20%; Bactericidal activity (%) Colletotrichum orbiculare [19]: 60.0%; Bactericidal activity (%) Cucumber fusarium wilt [20]: 27.3%; Corn borer Mortality (%) [21]: 40%; Relative inhibition rate (%) In vivo inactivation ([22]; treatment dose 100 μg/mL): 28.5%; Relative inhibition rate (%) In vivo inactivation ([22]; treatment dose 500 μg/mL): 66.7%
4 | COc1ccc(C=NNC(=O)[C@@H]2Cc3c([nH]c4ccccc34)[C@H](C)N2)cc1 [Ic-8, (1S, 3S)—N′-(4-methoxybenzylidene)-1-methyl-2,3,4,9-tetrahydropyridino [3,4-b] indol-3-formylhydrazine] | 31.8 | 70 | 30.0 | 94.1 | 52.0 | 68.0 | 64.7 | 73.7 | 64.3 | 35 | 35 | 72.2 | 59.2 | 59.1 | 20 | 28.7 | 62.5 | 65.5 | 34.8 | 66.4 | Bactericidal activity (%) Rhizoctonia cereali ([3]; 50 mg/kg): 84.3%; Bactericidal activity (%) Colletotrichum orbiculare [19]: 55.6%; Bactericidal activity (%) Cucumber fusarium wilt [20]: 23.1%; Corn borer Mortality (%) [21]: 15%; Relative inhibition rate (%) In vivo inactivation ([22]; treatment dose 100 μg/mL): 30.4%; Relative inhibition rate (%) In vivo inactivation ([22]; treatment dose 500 μg/mL): 69.1%
5 | COc1cccc(C=NNC(=O)[C@@H]2Cc3c([nH]c4ccccc34)[C@H](C)N2)c1 [Ic-9, (1S, 3S)—N′-(3-methoxybenzylidene)-1-methyl-2,3,4,9-tetrahydropyridino [3,4-b] indol-3-formylhydrazine] | 20.6 | 54.7 | 65.0 | 88.2 | 40.0 | 48.0 | 58.8 | 81.6 | 57.1 | 30 | 75 | 69.4 | 68.4 | 68.2 | 35 | 13.2 | 53.2 | 41.4 | 16.5 | 54 | Bactericidal activity (%) Rhizoctonia cereali ([3]; 50 mg/kg): 92.2%; Bactericidal activity (%) Colletotrichum orbiculare [19]: 40.7%; Bactericidal activity (%) Cucumber fusarium wilt [20]: 34.6%; Corn borer Mortality (%) [21]: 40%; Relative inhibition rate (%) In vivo inactivation ([22]; treatment dose 100 μg/mL): 22.1%; Relative inhibition rate (%) In vivo inactivation ([22]; treatment dose 500 μg/mL): 59.2%
